{
  "source": "a melting point compilation (Tetko et al.; mined from patent text by program, amines drawn as free bases though some values may be those of a salt)",
  "data": [
    {"units": {"melting point": "°C"}, "values": [
      {"smiles": "NC(CNCCO)(CC(=O)O)c1ccccc1", "note": "(stereo not given)", "melting point": "140 to 143"},
      {"smiles": "CC(=O)c1c(CBr)n(S(=O)(=O)c2ccccc2)c2ccc(Cl)cc12", "melting point": 155},
      {"smiles": "O=S1(=O)NCN(C2CCCCCCC2)c2cc(Cl)ccc21", "melting point": "141 to 143"},
      {"smiles": "CSCC[C@H](NC(=O)OC(C)(C)C)C(=O)Oc1ccc(NC(C)=O)cc1", "melting point": "225 to 228"},
      {"smiles": "C=C=CC1(OC(C)=O)CCC2C3CCc4cc(OC)ccc4C3CCC21C", "note": "(stereo not given)", "melting point": "89 to 90"},
      {"smiles": "CN1CC(Cn2ccnc2-c2ccccc2)CC2c3cccc4[nH]cc(c34)CC21", "note": "(stereo not given)", "melting point": "193 to 195"},
      {"smiles": "CN(C)c1nc(N)nc2nc[nH]c12", "melting point": "254 to 256"},
      {"smiles": "O=C1c2ccccc2C(=O)N1CCc1ccc(OC(F)(F)F)c(OC(F)(F)F)c1", "melting point": "60 to 61"},
      {"smiles": "CCCc1cc2c(=O)cc(C(=O)O)[nH]c2cc1OCCCOc1c(CCC)cc(C(C)=O)c(O)c1CCC", "melting point": "128 to 131"},
      {"smiles": "CNn1cc(C(=O)O)c(=O)c2cc(F)c(N3CCC(N)C3)c(F)c21", "note": "(stereo not given)", "melting point": "210 to 211"},
      {"smiles": "CC(=O)CC1CN=C(c2cc3cccc(N(C)S(=O)(=O)c4cccs4)c3[nH]2)S1", "note": "(stereo not given)", "melting point": "123 to 124"},
      {"smiles": "Oc1ccc(-c2c(Cl)c3cc(O)ccc3n2Cc2ccc(OCCN3CCCC3)cc2)cc1", "melting point": "233 to 235"},
      {"smiles": "N#Cc1c(C(F)(F)F)[nH]c2ccc(Br)cc12", "melting point": "188 to 192"},
      {"smiles": "O=C1c2ccccc2C(=O)N1n1cccc1Cl", "melting point": "130 to 132"},
      {"smiles": "COCc1c(S(C)(=O)=O)ccc(C(=O)C2SCCCC2=O)c1C", "note": "(stereo not given)", "melting point": "152 to 154"},
      {"smiles": "CNC(=O)C(NC(=O)c1ccc(F)cc1C(F)(F)F)C(O)CSc1cccc(F)c1", "note": "(stereo not given)", "melting point": 172},
      {"smiles": "O=C(Nc1ccc(Oc2ccnc(NC3CC3)n2)c2ccccc12)c1cc(F)cc(N2CCCCC2)c1", "melting point": "157 to 158"},
      {"smiles": "CCOC(=O)CNC(=O)N(N(CCCl)S(C)(=O)=O)S(C)(=O)=O", "melting point": "121 to 122"},
      {"smiles": "COC(=O)c1ccc(Cc2cc3cc(C(F)(F)F)ccc3n2S(=O)(=O)c2ccc3c(c2)N(C)CCO3)cc1", "melting point": 63},
      {"smiles": "CCOC(=O)C(=NOC)c1csc2cc(F)ccc12", "melting point": "84.5 to 86"},
      {"smiles": "Cn1ccc(NC(=S)S)n1", "melting point": "79 to 82"},
      {"smiles": "O=C(O)Cc1ccc(C(=O)O)cc1Sc1ccc(F)cc1", "melting point": "218 to 221"},
      {"smiles": "CCOC(=O)C(=O)Nc1cc(C(F)(F)F)cc(C(F)(F)F)c1[N+](=O)[O-]", "melting point": 115},
      {"smiles": "O=c1c2ccsc2ccn2ccnc12", "melting point": 267},
      {"smiles": "CC(C)C[C@@H](C(=O)NCCCC(c1ccc(F)cc1)c1ccc(F)cc1)N1CCCCC1", "melting point": "52 to 70"},
      {"smiles": "Cc1nc(C)c(Cl)c(CNCc2ccc(Oc3ccc4ncc([N+](=O)[O-])n4n3)cn2)n1", "melting point": "183 to 184"},
      {"smiles": "CC(C)N(C)S(=O)(=O)NC(=O)c1cc(N)c(F)cc1Cl", "melting point": "160 to 162"},
      {"smiles": "CC(=O)OC(c1ccc(NC(=O)c2ccc(-c3ccc(Cl)cc3)cc2)cc1)C1CCCNC1", "note": "(stereo not given)", "melting point": "200 to 203"},
      {"smiles": "CC1CN(C(=O)CCl)c2ccccc21", "note": "(stereo not given)", "melting point": "78 to 79"},
      {"smiles": "Cc1nc(-c2ccc(C#N)cc2)sc1C(=O)O", "melting point": "235 to 250"},
      {"smiles": "O=C1c2ccccc2-c2nc3ccc(O)cc3c(Cl)c21", "melting point": 253},
      {"smiles": "Nc1ccc([N+](=O)[O-])cc1S(=O)(=O)CCO", "melting point": 175},
      {"smiles": "Nc1ccc(C(=O)N2CCCCc3sccc32)cc1", "melting point": "168 to 172"},
      {"smiles": "CN(C)CCCOc1ccc2sc(C(=O)Nc3ccccc3N)cc2c1", "melting point": "164 to 167"},
      {"smiles": "Cc1nc(Nc2nc(N)nc(-c3ccccc3)c2-c2ccc(=O)n(C(C)C)n2)sc1C", "melting point": "256 to 258"},
      {"smiles": "Nc1cc2c(cc1[N+](=O)[O-])OCO2", "melting point": "199 to 201"},
      {"smiles": "N#CCCNC(=O)c1cccc(-c2ccc3c(c2)N(Cc2cccc(Cl)c2Cl)CC3)c1", "melting point": "160 to 161"},
      {"smiles": "O=C(O)c1cn(C2CC2)c2nc(-c3cc4c(s3)CCC/C4=N\\O)c(F)cc2c1=O", "melting point": "> 300"},
      {"smiles": "CN(CCC(Oc1ccc(C(=O)c2cc3ccccc3s2)cc1)c1ccc(Cl)cc1)CC(=O)O", "note": "(stereo not given)", "melting point": "101 to 112"},
      {"smiles": "CCOC(=O)c1ncn2c1c(=O)n(C)c1ncccc12", "melting point": "233 to 234"},
      {"smiles": "O=c1[nH]c2cc3ccccc3cc2[nH]c1=O", "melting point": "> 250"},
      {"smiles": "C(=C\\c1cc(/C=C/c2ccc3cc[nH]c3c2)[nH]n1)/c1ccc(N2CCOCC2)cc1", "melting point": "236 to 238"},
      {"smiles": "CNC(=S)NNCC1CC2c3cccc4[nH]cc(c34)CC2N(C)C1", "note": "(stereo not given)", "melting point": "220 to 221"},
      {"smiles": "CCOC(=O)c1csc(Nc2ccc(C)cn2)n1", "melting point": "198 to 200"},
      {"smiles": "COc1cc(COc2nn(-c3ccccc3)cc2/C=C/C(=O)O)ccc1OCc1nc(-c2ccccc2)oc1C", "melting point": "188 to 189"},
      {"smiles": "COc1cc(C=CC(=O)c2cccc(O)c2)cc(OC)c1", "melting point": "126 to 127"},
      {"smiles": "CCCCCCCCCCCCCCOc1ccc(CC(=O)NCc2ccccn2)cc1", "melting point": "86 to 87"},
      {"smiles": "Nc1nc(NCCC2CCCCC2)nc2c1ncn2C1OC(CO)C(O)C1O", "note": "(stereo not given)", "melting point": "142 to 145"},
      {"smiles": "CSc1nc2c(c(=O)[nH]1)CC2", "melting point": 215},
      {"smiles": "CC(C)NC1=NS(=O)(=O)c2ccc(S(=O)(=O)c3ccccc3)cc2N1", "melting point": "178 to 180"}
    ]}
  ]
}
